Reference: EPA's CvTdb concentration-time database

Legend:
[1] = system: rat; assay: amount in urine after dosing (umol); details: inhalation, duration: 4 hr, F344 (Harlan Winkelmann)
[2] = system: Rat; assay: concentration in kidney after dosing; details: oral
[3] = system: Rat; assay: concentration in liver after dosing; details: oral
[4] = system: Rat; assay: concentration in plasma after dosing; details: dosed: Potassium Perfluorobutane Sulfonate, 4 mg/kg, iv, Male, F344
[5] = system: Rat; assay: concentration in brain after dosing; details: oral
[6] = system: Rat; assay: concentration in plasma after dosing
[7] = system: Rat; assay: concentration in kidney after dosing; details: 12 h; dosed: Perfluorooctanoic acid; 80 mg/kg; oral; Female; Harlan Sprague Dawley
[8] = system: Rat; assay: concentration in brain after dosing; details: 6 h; dosed: Perfluorooctanoic acid; 80 mg/kg; oral; Female; Harlan Sprague Dawley
[9] = system: Rat; assay: concentration in plasma after dosing; details: dosed: 678-39-7, 12 mg/kg, iv, Male, F344

CC(C)(C)O [tert-butyl alcohol]
[1]
Details	amount in urine
5.904 h, dosed: methyl tert-butyl ether, 38.7 ppm	0.773
5.97 h, dosed: ethyl tert-butyl ether, 40.6 ppm	0.601
11.88 h, dosed: methyl tert-butyl ether, 38.7 ppm	0.347
11.92 h, dosed: ethyl tert-butyl ether, 40.6 ppm	0.254
11.96 h, dosed: methyl tert-butyl ether, 4.5 ppm	0.24
17.95 h, dosed: methyl tert-butyl ether, 4.5 ppm	0.076
17.97 h, dosed: methyl tert-butyl ether, 38.7 ppm	0.126
17.99 h, dosed: ethyl tert-butyl ether, 40.6 ppm	0.187
23.91 h, dosed: methyl tert-butyl ether, 4.5 ppm	0.0671
23.93 h, dosed: methyl tert-butyl ether, 38.7 ppm	0.0789
23.94 h, dosed: ethyl tert-butyl ether, 40.6 ppm	0.0668
29.91 h, dosed: methyl tert-butyl ether, 38.7 ppm	0.0315
29.93 h, dosed: ethyl tert-butyl ether, 40.6 ppm	0.0668
29.96 h, dosed: methyl tert-butyl ether, 4.5 ppm	0.083

O=S(=O)([O-])C(F)(F)C(F)(F)C(F)(F)C(F)(F)F.[K+] [Potassium Perfluorobutane Sulfonate]
dosed: Potassium Perfluorobutane Sulfonate, 20 mg/kg
Details	concentration in brain, [5] [ng/g]	concentration in kidney, [2] [ng/g]	concentration in liver, [3] [ng/g]
0.5 h, Female, Harlan Sprague Dawley	538	30100	29500
0.5 h, Male, Harlan Sprague Dawley	590	19000	61000
0.5 h, Male, Harlan Sprague Dawley - this seems too small	725	19900	95200
1 h, Female, Harlan Sprague Dawley	–	17600	42000
1 h, Male, Harlan Sprague Dawley	1120	14900	75600
3 h, Female, Harlan Sprague Dawley	–	10900	5790
3 h, Male, Harlan Sprague Dawley	769	19700	87000
6 h, Female, Harlan Sprague Dawley	–	1290	910
6 h, Male, Harlan Sprague Dawley	562	15200	51600
12 h, Male, Harlan Sprague Dawley	–	1960	7420

[4]
Details	concentration in plasma [ng/mL]
3 h	305
5 min	26400

concentration in plasma [ng/mL], [6], dosed: Potassium Perfluorobutane Sulfonate
Details	4 mg/kg	20 mg/kg
0.25 h, iv, Male, F344	28000	–
0.25 h, oral, Male, Harlan Sprague Dawley	4690	28700
0.5 h, iv, Female, Harlan Sprague-Dawley	11100	–
0.5 h, iv, Male, F344	23800	–
0.5 h, oral, Male, Harlan Sprague Dawley	9170	–
0.75 h, iv, Female, Harlan Sprague-Dawley	7790	–
0.75 h, iv, Male, F344	23800	–
0.75 h, oral, Male, Harlan Sprague Dawley	9060	49600
1 h, iv, Female, Harlan Sprague-Dawley	4090	–
1 h, iv, Male, F344	22000	–
1 h, oral, Male, Harlan Sprague Dawley	12900	–
1.5 h, iv, Male, F344	18500	–
1.5 h, oral, Male, Harlan Sprague Dawley	12100	63600
3 h, iv, Male, F344	10500	–
3 h, oral, Male, Harlan Sprague Dawley	15300	–
5 min, iv, Male, F344	33300	–
5 min, oral, Male, Harlan Sprague Dawley	537	653
6 h, iv, Male, F344	6690	–
6 h, oral, Male, Harlan Sprague Dawley	12500	–
9 h, oral, Male, Harlan Sprague Dawley	8100	15100
12 h, iv, Male, F344	1600	–
12 h, oral, Male, Harlan Sprague Dawley	9160	–
24 h, iv, Male, F344	232	–
24 h, oral, Male, Harlan Sprague Dawley	47.1	364
48 h, oral, Male, Harlan Sprague Dawley	–	42.6

O=C(O)C(F)(F)C(F)(F)C(F)(F)C(F)(F)C(F)(F)C(F)(F)C(F)(F)F [Perfluorooctanoic acid]
Details	concentration in brain, [5] [ng/g]	concentration in kidney, [2] [ng/g]	concentration in liver, [3] [ng/g]
0.5 h, dosed: Fluorotelomer alcohol 8+2, 24 mg/kg, Male, Harlan Sprague Dawley	–	–	325
0.5 h, dosed: Fluorotelomer alcohol 8+2, 24 mg/kg, Male, Harlan Sprague Dawley - this seems too small	–	–	211
0.5 h, dosed: Fluorotelomer alcohol 8+2, 80 mg/kg, Female, Harlan Sprague Dawley	–	284	434
1 h, dosed: Fluorotelomer alcohol 8+2, 24 mg/kg, Male, Harlan Sprague Dawley	–	190	751
1 h, dosed: Fluorotelomer alcohol 8+2, 80 mg/kg, Female, Harlan Sprague Dawley	–	677	816
3 h, dosed: Fluorotelomer alcohol 8+2, 24 mg/kg, Male, Harlan Sprague Dawley	–	270	1150
3 h, dosed: Fluorotelomer alcohol 8+2, 80 mg/kg, Female, Harlan Sprague Dawley	–	1260	1540
6 h, dosed: Fluorotelomer alcohol 8+2, 24 mg/kg, Male, Harlan Sprague Dawley	–	243	1460
6 h, dosed: Fluorotelomer alcohol 8+2, 80 mg/kg, Female, Harlan Sprague Dawley	224	2480	1970
12 h, dosed: Fluorotelomer alcohol 8+2, 24 mg/kg, Male, Harlan Sprague Dawley	–	419	2000
12 h, dosed: Fluorotelomer alcohol 8+2, 80 mg/kg, Female, Harlan Sprague Dawley	–	874	701

Details	concentration in brain [ng/g]	concentration in kidney [ng/g]	concentration in liver [ng/g]	concentration in plasma [ng/mL]
[2], 3 h, dosed: Perfluorooctanoic acid, 12 mg/kg, Male, Harlan Sprague Dawley	–	42500	–	–
[2], 3 h, dosed: Perfluorooctanoic acid, 80 mg/kg, Female, Harlan Sprague Dawley	–	70300	–	–
[2], 6 h, dosed: Perfluorooctanoic acid, 12 mg/kg, Male, Harlan Sprague Dawley	–	25600	–	–
[2], 6 h, dosed: Perfluorooctanoic acid, 80 mg/kg, Female, Harlan Sprague Dawley	–	263000	–	–
[2], 12 h, dosed: Perfluorooctanoic acid, 12 mg/kg, Male, Harlan Sprague Dawley	–	36200	–	–
[2], 12 h, dosed: Perfluorooctanoic acid, 80 mg/kg, Female, Harlan Sprague Dawley	–	61600	–	–
[2], 24 h, dosed: Perfluorooctanoic acid, 12 mg/kg, Male, Harlan Sprague Dawley	–	30400	–	–
[2], 24 h, dosed: Perfluorooctanoic acid, 80 mg/kg, Female, Harlan Sprague Dawley	–	11600	–	–
[2], 48 h, dosed: Perfluorooctanoic acid, 80 mg/kg, Female, Harlan Sprague Dawley	–	541	–	–
[2], 192 h, dosed: Perfluorooctanoic acid, 12 mg/kg, Male, Harlan Sprague Dawley	–	20300	–	–
[2], 528 h, dosed: Perfluorooctanoic acid, 12 mg/kg, Male, Harlan Sprague Dawley	–	3900	–	–
[2], 528 h, dosed: Perfluorooctanoic acid, 12 mg/kg, Male, Harlan Sprague Dawley - this seems too small	–	6140	–	–
[2], 1200 h, dosed: Perfluorooctanoic acid, 12 mg/kg, Male, Harlan Sprague Dawley	–	574	–	–
[3], 3 h, dosed: Perfluorooctanoic acid, 12 mg/kg, Male, Harlan Sprague Dawley	–	–	49900	–
[3], 3 h, dosed: Perfluorooctanoic acid, 80 mg/kg, Female, Harlan Sprague Dawley	–	–	35300	–
[3], 6 h, dosed: Perfluorooctanoic acid, 12 mg/kg, Male, Harlan Sprague Dawley	–	–	51000	–
[3], 6 h, dosed: Perfluorooctanoic acid, 80 mg/kg, Female, Harlan Sprague Dawley	–	–	197000	–
[3], 12 h, dosed: Perfluorooctanoic acid, 12 mg/kg, Male, Harlan Sprague Dawley	–	–	65600	–
[3], 12 h, dosed: Perfluorooctanoic acid, 80 mg/kg, Female, Harlan Sprague Dawley	–	–	52000	–
[3], 24 h, dosed: Perfluorooctanoic acid, 12 mg/kg, Male, Harlan Sprague Dawley	–	–	64800	–
[3], 24 h, dosed: Perfluorooctanoic acid, 80 mg/kg, Female, Harlan Sprague Dawley	–	–	7890	–
[3], 48 h, dosed: Perfluorooctanoic acid, 80 mg/kg, Female, Harlan Sprague Dawley	–	–	573	–
[3], 192 h, dosed: Perfluorooctanoic acid, 12 mg/kg, Male, Harlan Sprague Dawley	–	–	48600	–
[3], 528 h, dosed: Perfluorooctanoic acid, 12 mg/kg, Male, Harlan Sprague Dawley	–	–	14900	–
[3], 528 h, dosed: Perfluorooctanoic acid, 12 mg/kg, Male, Harlan Sprague Dawley - this seems too small	–	–	22600	–
[3], 1200 h, dosed: Perfluorooctanoic acid, 12 mg/kg, Male, Harlan Sprague Dawley	–	–	2160	–
[5], 3 h, dosed: Perfluorooctanoic acid, 12 mg/kg, Male, Harlan Sprague Dawley	1300	–	–	–
[5], 3 h, dosed: Perfluorooctanoic acid, 80 mg/kg, Female, Harlan Sprague Dawley	916	–	–	–
[5], 6 h, dosed: Perfluorooctanoic acid, 12 mg/kg, Male, Harlan Sprague Dawley	1140	–	–	–
[5], 6 h, dosed: Perfluorooctanoic acid, 80 mg/kg, Female, Harlan Sprague Dawley	4050	–	–	–
[5], 12 h, dosed: Perfluorooctanoic acid, 12 mg/kg, Male, Harlan Sprague Dawley	1390	–	–	–
[5], 12 h, dosed: Perfluorooctanoic acid, 80 mg/kg, Female, Harlan Sprague Dawley	1360	–	–	–
[5], 24 h, dosed: Perfluorooctanoic acid, 12 mg/kg, Male, Harlan Sprague Dawley	1080	–	–	–
[5], 192 h, dosed: Perfluorooctanoic acid, 12 mg/kg, Male, Harlan Sprague Dawley	584	–	–	–
[6], 0.25 h, dosed: 678-39-7, 12 mg/kg, iv, Male, F344	–	–	–	184
[6], 0.25 h, dosed: 678-39-7, 40 mg/kg, iv, Male, F344	–	–	–	257000
[6], 0.25 h, dosed: Fluorotelomer alcohol 8+2, 12 mg/kg, oral, Male, Harlan Sprague Dawley	–	–	–	14.2
[6], 0.5 h, dosed: 678-39-7, 12 mg/kg, iv, Male, F344	–	–	–	282
[6], 0.5 h, dosed: 678-39-7, 40 mg/kg, iv, Female, Harlan Sprague-Dawley	–	–	–	1570
[6], 0.5 h, dosed: 678-39-7, 40 mg/kg, iv, Male, F344	–	–	–	1510
[6], 0.5 h, dosed: Fluorotelomer alcohol 8+2, 12 mg/kg, oral, Male, Harlan Sprague Dawley	–	–	–	68.8
[6], 0.75 h, dosed: 678-39-7, 12 mg/kg, iv, Male, F344	–	–	–	203
[6], 0.75 h, dosed: 678-39-7, 40 mg/kg, iv, Female, Harlan Sprague-Dawley	–	–	–	1860
[6], 0.75 h, dosed: Fluorotelomer alcohol 8+2, 12 mg/kg, oral, Male, Harlan Sprague Dawley	–	–	–	159
[6], 1 h, dosed: 678-39-7, 12 mg/kg, iv, Male, F344	–	–	–	396
[6], 1 h, dosed: 678-39-7, 40 mg/kg, iv, Female, Harlan Sprague-Dawley	–	–	–	2280
[6], 3 h, dosed: 678-39-7, 12 mg/kg, iv, Male, F344	–	–	–	478
[6], 3 h, dosed: 678-39-7, 40 mg/kg, iv, Male, F344	–	–	–	2030
[6], 3 h, dosed: Fluorotelomer alcohol 8+2, 12 mg/kg, oral, Male, Harlan Sprague Dawley	–	–	–	423
[6], 5 min, dosed: 678-39-7, 12 mg/kg, iv, Male, F344	–	–	–	29.7
[6], 5 min, dosed: 678-39-7, 40 mg/kg, iv, Male, F344	–	–	–	189
[6], 6 h, dosed: 678-39-7, 12 mg/kg, iv, Male, F344	–	–	–	630
[6], 6 h, dosed: Fluorotelomer alcohol 8+2, 12 mg/kg, oral, Male, Harlan Sprague Dawley	–	–	–	634
[6], 9 h, dosed: 678-39-7, 12 mg/kg, iv, Male, F344	–	–	–	607
[6], 9 h, dosed: 678-39-7, 40 mg/kg, iv, Female, Harlan Sprague-Dawley	–	–	–	622
[6], 9 h, dosed: 678-39-7, 40 mg/kg, iv, Male, F344	–	–	–	702
[6], 9 h, dosed: Fluorotelomer alcohol 8+2, 12 mg/kg, oral, Male, Harlan Sprague Dawley	–	–	–	578
[6], 12 h, dosed: 678-39-7, 12 mg/kg, iv, Male, F344	–	–	–	364
[6], 12 h, dosed: 678-39-7, 40 mg/kg, iv, Female, Harlan Sprague-Dawley	–	–	–	353
[6], 12 h, dosed: 678-39-7, 40 mg/kg, iv, Male, F344	–	–	–	12300
[6], 12 h, dosed: Fluorotelomer alcohol 8+2, 12 mg/kg, oral, Male, Harlan Sprague Dawley	–	–	–	507
[6], 24 h, dosed: 678-39-7, 12 mg/kg, iv, Male, F344	–	–	–	460
[6], 24 h, dosed: 678-39-7, 40 mg/kg, iv, Female, Harlan Sprague-Dawley	–	–	–	52.2
[6], 48 h, dosed: Fluorotelomer alcohol 8+2, 12 mg/kg, oral, Male, Harlan Sprague Dawley	–	–	–	536
[6], 192 h, dosed: 678-39-7, 12 mg/kg, iv, Male, F344	–	–	–	260
[6], 192 h, dosed: Fluorotelomer alcohol 8+2, 12 mg/kg, oral, Male, Harlan Sprague Dawley	–	–	–	356

Details	concentration in brain [ng/g]	concentration in kidney [ng/g]
[7]	–	67800
[8]	3290	–

[9]
Details	concentration in plasma [ng/mL]
0.5 h	210
9 h	521
